Reference: US12364694B2 (priority 2018, dated 2025)

Legend:
[1] = tested on: male Sprague-Dawley rats; conditions: cited from earlier work; for tolerance during repeated dosing: subcutaneous dosing for 28 days, 0.3 and 3 mg/kg; for physical dependence upon cessation of dosing: withdrawal after 28 days subcutaneous dosing
[2] = tested on: protein phosphorylation (ERK1, ERK2, Glul, NR2B and TH) in mice nucleus accumbens; conditions: cited from earlier work
[3] = molecular target: T1, serotonin transporter (SERT) (Homo sapiens, UniProt P31645); experiment: Radioligand binding assay, human recombinant transporter in CHO cells; conditions: read-out: % Inhibition (mean) of control specific binding
T1 construct: expressed in transfected cells; host or cells: CHO

[4] = molecular target: serotonin 5-HT2 receptor family; conditions: mice, oral dosing, subcutaneous DOI; cited from earlier work
[5] = molecular target: T2, dopamine D2S receptor (Homo sapiens, UniProt P14416); experiment: Radioligand binding assay, human recombinant receptor in HEK cells; conditions: read-out: % Inhibition (mean) of control specific binding
T2 construct: expressed in transfected cells; host or cells: HEK-293

[6] = molecular target: T3, serotonin 5-HT2A receptor (Homo sapiens, UniProt P28223); experiment: as above; conditions: read-out: % Inhibition (mean) of control specific binding
T3 construct: expressed in transfected cells; host or cells: HEK-293

[7] = tested on: mouse formalin paw test; conditions: subcutaneous paw pre-treatment 30 minutes prior to […] formalin, three doses; cited from earlier work
[8] = molecular target: T4, dopamine D1 receptor (Homo sapiens, UniProt P21728); experiment: Radioligand binding assay, human recombinant receptor in CHO cells; conditions: read-out: % Inhibition (mean) of control specific binding
T4 construct: expressed in transfected cells; host or cells: CHO

[9] = rat, in vivo, po, 10 mg/kg
[10] = in vivo; conditions: rat
[11] = tested on: mouse marble-burying model for OCD; conditions: positive control, after 30 minutes; cited from earlier work

T3 sequence (P28223 whole entry): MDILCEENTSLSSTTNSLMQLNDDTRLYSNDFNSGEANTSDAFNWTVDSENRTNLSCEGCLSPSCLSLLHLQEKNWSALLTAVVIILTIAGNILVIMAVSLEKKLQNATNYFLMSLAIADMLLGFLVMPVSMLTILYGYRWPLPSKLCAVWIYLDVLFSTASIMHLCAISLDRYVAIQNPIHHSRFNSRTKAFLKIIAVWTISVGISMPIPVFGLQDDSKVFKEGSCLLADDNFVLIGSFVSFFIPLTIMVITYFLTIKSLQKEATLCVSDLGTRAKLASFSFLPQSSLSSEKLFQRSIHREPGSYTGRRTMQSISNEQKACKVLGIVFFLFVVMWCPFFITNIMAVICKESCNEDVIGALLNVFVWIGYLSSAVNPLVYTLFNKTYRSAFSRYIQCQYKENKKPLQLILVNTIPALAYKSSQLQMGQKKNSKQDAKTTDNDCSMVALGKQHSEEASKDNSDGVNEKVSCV
T1 sequence (P31645 whole entry): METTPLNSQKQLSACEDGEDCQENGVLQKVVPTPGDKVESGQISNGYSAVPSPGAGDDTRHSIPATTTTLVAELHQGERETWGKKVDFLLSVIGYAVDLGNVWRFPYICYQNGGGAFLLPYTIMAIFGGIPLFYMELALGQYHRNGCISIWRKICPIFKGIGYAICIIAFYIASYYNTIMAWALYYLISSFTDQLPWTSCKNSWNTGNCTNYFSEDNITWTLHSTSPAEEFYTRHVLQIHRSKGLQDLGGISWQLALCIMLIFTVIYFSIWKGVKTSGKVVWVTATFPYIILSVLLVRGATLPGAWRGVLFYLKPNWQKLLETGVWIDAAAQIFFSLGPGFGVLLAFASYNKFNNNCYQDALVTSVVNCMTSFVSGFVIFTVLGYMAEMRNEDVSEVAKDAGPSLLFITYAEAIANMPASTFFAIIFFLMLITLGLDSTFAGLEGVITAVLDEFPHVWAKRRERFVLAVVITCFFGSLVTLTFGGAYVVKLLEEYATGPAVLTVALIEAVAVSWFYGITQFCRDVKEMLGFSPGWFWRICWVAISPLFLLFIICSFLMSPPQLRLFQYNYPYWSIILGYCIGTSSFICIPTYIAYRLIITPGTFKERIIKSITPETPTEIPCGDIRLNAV
T2 sequence (P14416 1-414 isoform P14416-2): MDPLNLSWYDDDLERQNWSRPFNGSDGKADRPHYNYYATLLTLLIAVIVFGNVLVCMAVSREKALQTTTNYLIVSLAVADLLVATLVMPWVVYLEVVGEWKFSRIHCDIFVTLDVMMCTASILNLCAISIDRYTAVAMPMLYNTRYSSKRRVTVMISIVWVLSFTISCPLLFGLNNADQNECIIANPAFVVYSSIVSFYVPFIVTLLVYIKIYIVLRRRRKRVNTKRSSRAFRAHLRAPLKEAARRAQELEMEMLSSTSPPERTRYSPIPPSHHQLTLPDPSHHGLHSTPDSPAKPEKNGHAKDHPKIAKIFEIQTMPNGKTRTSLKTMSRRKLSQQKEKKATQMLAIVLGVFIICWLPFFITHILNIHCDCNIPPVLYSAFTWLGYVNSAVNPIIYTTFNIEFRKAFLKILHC
T4 sequence (P21728 whole entry): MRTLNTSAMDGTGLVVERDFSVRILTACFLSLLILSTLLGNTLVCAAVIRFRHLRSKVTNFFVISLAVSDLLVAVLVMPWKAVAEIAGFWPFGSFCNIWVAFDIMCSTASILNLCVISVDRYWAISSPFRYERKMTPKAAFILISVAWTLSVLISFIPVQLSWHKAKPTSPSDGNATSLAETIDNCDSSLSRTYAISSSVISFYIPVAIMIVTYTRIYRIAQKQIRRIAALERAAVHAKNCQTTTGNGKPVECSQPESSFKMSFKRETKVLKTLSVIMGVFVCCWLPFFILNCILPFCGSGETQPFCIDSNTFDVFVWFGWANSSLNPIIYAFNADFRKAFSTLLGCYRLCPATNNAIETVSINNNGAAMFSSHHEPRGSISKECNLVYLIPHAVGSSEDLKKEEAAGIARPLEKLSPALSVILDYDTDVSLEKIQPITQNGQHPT

Q: What does the source list for “(6bR,10aS)-8-(1,1,3,3-d4-3-(4-fluorophenoxy)propyl)-6b,7,8,9,10,10a-hexahydro-1H-pyrido[3′,4′:4,5]pyrrolo[1,2,3-de]quinoxalin-2(3H)-one [Example 3]”?
A: tolerance during repeated dosing [1]: does not produce tolerance; physical dependence upon cessation of dosing [1]: not to produce a syndrome of physical dependence

Q: Which “increase in TH phosphorylation” value [2] does the source give for `O=C(CCCN1CCC(O)(c2ccc(Cl)cc2)CC1)c1ccc(F)cc1` [haloperidol] here?
A: 400-500%

Q: With `O=C1CN2c3c(cccc3[C@@H]3CN(CCCOc4ccc(F)cc4)CC[C@@H]32)N1` [Formula A] as the compound, how does the inhibition at 1 µM [3] read?
A: 33.4%

Q: What about the “EC50 blocking DOI-induced head twitch” value [4] of the same compound?
A: 0.44 mg/kg, p.o.

Q: What about the “effect on ERK2 phosphorylation” value [2] of the same compound?
A: marginal effects

Q: And the “effect on GluR1 phosphorylation” value [2]?
A: marginal effects

Q: What about the “effect on NR2B phosphorylation” value [2] of the same compound?
A: neither the compound of Formula A nor the compound of Formula B has a significant effect

Q: What about the “effect on TH phosphorylation” value [2] of the same compound?
A: neither the compound of Formula A nor the compound of Formula B has a significant effect

Q: What about the inhibition at 0.3 µM [5] of the same compound?
A: 53.6%

Q: What about the inhibition at 0.01 µM [6] of the same compound?
A: 63%

Q: And the “early phase acute pain response and late phase delayed inflammatory response” value [7]?
A: dose-dependently attenuates both the early phase acute pain response and the late phase delayed inflammatory response

Q: What about the inhibition at 0.1 µM [8] of the same compound?
A: 43.4%

Q: With `[2H]C1([2H])C(=O)Nc2cccc3c2N1[C@H]1CCN(CCCOc2ccc(F)cc2)C[C@@H]31` [Example 1, (6bR,10aS)-1,1-d2-8-(3-(4-fluorophenoxy)propyl)-6b,7,8,9,10,10a-hexahydro-1H-pyrido[3′,4′:4,5]pyrrolo[1,2,3-de]quinoxalin-2(3H)-one] as the compound, how does the inhibition at 1 µM [3] read?
A: 34.5%

Q: And the inhibition at 0.3 µM [5]?
A: 47.5%

Q: And the inhibition at 0.01 µM [6]?
A: 64.7%

Q: And the inhibition at 0.1 µM [8]?
A: 36.6%

Q: Which plasma concentration [9] does the source give for `[2H]c1c([2H])c(OC([2H])([2H])C([2H])([2H])C([2H])([2H])N2CC[C@H]3[C@@H](C2)c2cccc4c2N3C([2H])([2H])C(=O)N4)c([2H])c([2H])c1F` [Example 8, (6bR,10aS)-1,1-dideuterio-8-(1,1,2,2,3,3-hexadeuterio-3-(2,3,5,6-tetradeuterio-4-fluorophenoxy)propyl)-6b,7,8,9,10,10a-hexahydro-1H-pyrido[3′,4′:4,5]pyrrolo[1,2,3-de]quinoxalin-2(3H)-one] here?
A: BLQ

Q: What about the AUC ([10]; po, 10 mg/kg) of the same compound?
A: 3390 ng·h/mL

Q: And the Cmax ([10]; po, 10 mg/kg)?
A: 68.4 ng/mL

Q: And the Tmax ([10]; po, 10 mg/kg)?
A: 6 h

Q: And the concentration at 0.033 h ([10]; po, 10 mg/kg)?
A: 1.3 ng/mL

Q: And the concentration at 0.083 h ([10]; po, 10 mg/kg)?
A: 8.6 ng/mL

Q: What about the concentration at 0.5 h ([10]; po, 10 mg/kg) of the same compound?
A: 45.8 ng/mL

Q: And the concentration at 1 h ([10]; po, 10 mg/kg)?
A: 62.4 ng/mL

Q: What about the concentration at 2 h ([10]; po, 10 mg/kg) of the same compound?
A: 133 ng/mL

Q: What about the concentration at 6 h ([10]; po, 10 mg/kg) of the same compound?
A: 245 ng/mL

Q: What about the concentration at 8 h ([10]; po, 10 mg/kg) of the same compound?
A: 187 ng/mL

Q: And the concentration at 12 h ([10]; po, 10 mg/kg)?
A: 181 ng/mL

Q: And the concentration at 24 h ([10]; po, 10 mg/kg)?
A: 3.3 ng/mL

Q: And the concentration at […] ([10]; po, 10 mg/kg)?
A: 46.7 ng/mL

Q: And the AUC ([10]; sc, 3 mg/kg)?
A: 494 ng·h/mL

Q: What about the Cmax ([10]; sc, 3 mg/kg) of the same compound?
A: 78.9 ng/mL

Q: What about the Tmax ([10]; sc, 3 mg/kg) of the same compound?
A: 1 h

Q: What about the concentration at 0.033 h ([10]; sc, 3 mg/kg) of the same compound?
A: 5.7 ng/mL

Q: And the concentration at 0.083 h ([10]; sc, 3 mg/kg)?
A: 25.7 ng/mL

Q: What about the concentration at 0.5 h ([10]; sc, 3 mg/kg) of the same compound?
A: 76.4 ng/mL

Q: And the concentration at 1 h ([10]; sc, 3 mg/kg)?
A: 78.9 ng/mL

Q: And the concentration at 2 h ([10]; sc, 3 mg/kg)?
A: 62.9 ng/mL

Q: And the concentration at 6 h ([10]; sc, 3 mg/kg)?
A: 14.1 ng/mL

Q: And the concentration at 8 h ([10]; sc, 3 mg/kg)?
A: 6.5 ng/mL

Q: And the concentration at 12 h ([10]; sc, 3 mg/kg)?
A: 4.1 ng/mL

Q: What about the concentration at 24 h ([10]; sc, 3 mg/kg) of the same compound?
A: 2.1 ng/mL

Q: What about the concentration at 48 h ([10]; sc, 3 mg/kg) of the same compound?
A: 2.4 ng/mL

Q: And the concentration at 72 h ([10]; sc, 3 mg/kg)?
A: 1.4 ng/mL

Q: And the concentration at […] ([10]; sc, 3 mg/kg)?
A: 46 ng/mL

Q: What does the source list for `[2H]C([2H])(Oc1ccc(F)cc1)C([2H])([2H])C([2H])([2H])N1CC[C@H]2[C@@H](C1)c1cccc3c1N2CC(=O)N3` [Example 2, (6bR,10aS)-8-(1,1,2,2,3,3-d6-3-(4-fluorophenoxy)propyl)-6b,7,8,9,10,10a-hexahydro-1H-pyrido[3′,4′: 4,5]pyrrolo[1,2,3-de]quinoxalin-2(3H)-one]?
A: plasma concentration [9]: BLQ; AUC ([10]; po, 10 mg/kg): 3660 ng·h/mL; Cmax ([10]; po, 10 mg/kg): 64.6 ng/mL; Tmax ([10]; po, 10 mg/kg): 6 h; concentration at 0.033 h ([10]; po, 10 mg/kg): 1 ng/mL; concentration at 0.083 h ([10]; po, 10 mg/kg): 10.6 ng/mL; concentration at 0.5 h ([10]; po, 10 mg/kg): 55.7 ng/mL; concentration at 1 h ([10]; po, 10 mg/kg): 72.3 ng/mL; concentration at 2 h ([10]; po, 10 mg/kg): 143 ng/mL; concentration at 6 h ([10]; po, 10 mg/kg): 260 ng/mL; concentration at 8 h ([10]; po, 10 mg/kg): 200 ng/mL; concentration at 12 h ([10]; po, 10 mg/kg): 196 ng/mL; concentration at 24 h ([10]; po, 10 mg/kg): 3 ng/mL; concentration at […] ([10]; po, 10 mg/kg): 56.9 ng/mL; AUC ([10]; sc, 3 mg/kg): 492 ng·h/mL; Cmax ([10]; sc, 3 mg/kg): 81.4 ng/mL; Tmax ([10]; sc, 3 mg/kg): 1 h; concentration at 0.033 h ([10]; sc, 3 mg/kg): 6 ng/mL; concentration at 0.083 h ([10]; sc, 3 mg/kg): 27.5 ng/mL; concentration at 0.5 h ([10]; sc, 3 mg/kg): 80 ng/mL; concentration at 1 h ([10]; sc, 3 mg/kg): 81.4 ng/mL; concentration at 2 h ([10]; sc, 3 mg/kg): 65.2 ng/mL; concentration at 6 h ([10]; sc, 3 mg/kg): 15 ng/mL; concentration at 8 h ([10]; sc, 3 mg/kg): 6.7 ng/mL; concentration at 12 h ([10]; sc, 3 mg/kg): 3.9 ng/mL; concentration at 24 h ([10]; sc, 3 mg/kg): 2.1 ng/mL; concentration at 48 h ([10]; sc, 3 mg/kg): 2 ng/mL; concentration at 72 h ([10]; sc, 3 mg/kg): 1 ng/mL; concentration at […] ([10]; sc, 3 mg/kg): 48.2 ng/mL

Q: With `[2H]C([2H])(CC([2H])([2H])N1CC[C@H]2[C@@H](C1)c1cccc3c1N2CC(=O)N3)Oc1ccc(F)cc1` [Example 3, (6bR,10aS)-8-(1,1,3,3-d4-3-(4-fluorophenoxy)propyl)-6b,7,8,9,10,10a-hexahydro-1H-pyrido[3′,4′:4,5]pyrrolo[1,2,3-de]quinoxalin-2(3H)-one] as the compound, how does the inhibition at 1 µM [3] read?
A: 31.8%

Q: And the inhibition at 0.3 µM [5]?
A: 55.1%

Q: What about the inhibition at 0.01 µM [6] of the same compound?
A: 64.1%

Q: What about the inhibition at 0.1 µM [8] of the same compound?
A: 36.3%

Q: For `[2H]C([2H])(CCN1CC[C@H]2[C@@H](C1)c1cccc3c1N2CC(=O)N3)Oc1ccc(F)cc1` [Example 7, (6bR,10aS)-8-(3,3-dideuterio-3-(4-fluorophenoxy)propyl)-6b,7,8,9,10,10a-hexahydro-1H-pyrido[3′,4′:4,5]pyrrolo[1,2,3-de]quinoxalin-2(3H)-one], which inhibition at 1 µM [3] is on record?
A: 31.1%

Q: What about the inhibition at 0.3 µM [5] of the same compound?
A: 53.3%

Q: And the inhibition at 0.01 µM [6]?
A: 63.5%

Q: And the inhibition at 0.1 µM [8]?
A: 34.8%

Q: With `CN1CC[C@]23c4c5ccc(O)c4O[C@H]2[C@@H](O)C=C[C@H]3[C@H]1C5` [Morphine, reference compound] as the compound, how does the “tolerance during repeated dosing” value [1] read?
A: clear signs of tolerance and dependence

Q: And the “physical dependence upon cessation of dosing” value [1]?
A: clear signs of tolerance and dependence

Q: With `[2H]c1c([2H])c(OCCCN2CC[C@H]3[C@@H](C2)c2cccc4c2N3CC(=O)N4)c([2H])c([2H])c1F` [Example 6, (6bR,10aS)-8-(3-(2,3,5,6-tetradeuterio-4-fluorophenoxy)propyl)-6b,7,8,9,10,10a-hexahydro-1H-pyrido[3′,4′:4,5]pyrrolo[1,2,3-de]quinoxalin-2(3H)-one] as the compound, how does the inhibition at 1 µM [3] read?
A: 29.1%

Q: What about the inhibition at 0.3 µM [5] of the same compound?
A: 48.7%

Q: What about the inhibition at 0.01 µM [6] of the same compound?
A: 60.2%

Q: And the inhibition at 0.1 µM [8]?
A: 32.6%

Q: What does the source list for `[2H]C1([2H])C(=O)Nc2cccc3c2N1[C@H]1CCN(C([2H])([2H])C([2H])([2H])C([2H])([2H])Oc2ccc(F)cc2)C[C@@H]31` [Example 9, (6bR,10aS)-1,1-dideuterio-8-(1,1,2,2,3,3-hexadeuterio-3-(4-fluorophenoxy)-propyl)-6b,7,8,9,10,10a-hexahydro-1H-pyrido[3′,4′:4,5]pyrrolo[1,2,3-de]quinoxalin-2(3H)-one]?
A: inhibition at 1 µM [3]: 28.4%; inhibition at 0.3 µM [5]: 49.6%; inhibition at 0.01 µM [6]: 60.1%; inhibition at 0.1 µM [8]: 35.2%

Q: For `Cc1cccc(C#Cc2ccccc2)n1` [MPEP, 2-methyl-6-(phenylethynyl)pyridine], which “Marbles Buried” value [11] is on record?
A: 0.2

Q: Which “EC50 blocking DOI-induced head twitch” value [4] does the source give for `O=C1CN2c3c(cccc3[C@@H]3CN(CCCC(=O)c4ccc(F)cc4)CC[C@@H]32)N1` [Formula B, 4-((6bR,10aS)-2-oxo-2,3,6b,9,10,10a-hexahydro-1H,7H-pyrido[3′,4′:4,5]pyrrolo[1,2,3-de]quinoxalin-8-yl)-1-(4-fluoro-phenyl)-butan-1-one] here?
A: 0.23 mg/kg, p.o.

Q: What about the “effect on ERK2 phosphorylation” value [2] of the same compound?
A: marginal effects

Q: And the “effect on GluR1 phosphorylation” value [2]?
A: marginal effects

Q: And the “effect on NR2B phosphorylation” value [2]?
A: neither the compound of Formula A nor the compound of Formula B has a significant effect

Q: What about the “effect on TH phosphorylation” value [2] of the same compound?
A: neither the compound of Formula A nor the compound of Formula B has a significant effect
